How the values were obtained:
G93A-SOD1 mice = test: Disease progression, onset and survival in the SOD1 ALS mouse model; assay type: in vivo; conditions: vs untreated SOD1
Source text: FIGS. 7A, 7B, 7C, and 7D are charts showing symptomatic neurological disease progression in untreated SOD1 mice and SOD1 fingolimod treated mice. FIGS. 7A and 7C show the results for SOD1 mice having a low number (14-20) of copies of the transgene. FIGS. 7B and 7D show the results for SOD1 mice having a high number (20-25) copies of the transgene. Neurological disease progression was defined as the average neurological score over time for male SOD1 mice. For each chart, the lower line represents the SOD1 fingolimod treated mice; the upper line (i.e., having lower probability at each age in days, Dage) represents the untreated SOD1 mice.
FIG. 8A is a chart comparing disease onset probability as assessed by the Cox Proportional Hazards model in untreated SOD1 and SOD1 fingolimod treated mice. The black right line represents the SOD1 fingolimod treated mice; the gray left line represents the untreated SOD1 mice.
FIG. 8B is a chart comparing survival as assessed by the Cox Proportional Hazards model in untreated SOD1 mice and SOD1 fingolimod treated mice for individual animals. The black right line represents the SOD1 fingolimod treated mice; the gray left line represents the untreated SOD1 mice.
FIG. 9A is a chart showing disease onset probability as calculated by the Weibull method versus time in untreated SOD1 mice and SOD1 fingolimod treated mice. The right line represents the SOD1 fingolimod treated mice; the left line represents the untreated SOD1 mice.
FIG. 9B is a chart showing survival as calculated by the Weibull method versus time in untreated SOD1 mice and SOD1 fingolimod treated mice. The right line represents the SOD1 fingolimod treated mice; the left line represents the untreated SOD1 mice.
To assess the impact of reducing T lymphocyte cell proliferation on disease progression in the SOD1 preclinical animal model, fingolimod was administered to SOD1 mice and parameters of disease progression were measured, including daily measurements of neurological severity score, as well as T lymphocyte cell proliferation.
Neurological scores for both hind legs were assessed daily for each mouse from 50 days of age. The neurological score employed a scale of 0 to 4 that was developed by observation at ALSTDI (Scott et al., 2008). […] Animals were assigned a score of 2 when the toes curled under at least twice during walking a distance of 12 inches, or any part of the foot was dragging along the cage bottom/table. Animals were assigned a score of 3 when they had rigid paralysis or minimal joint movement, or a foot was not being used for forward motion. Animals were assigned a score of 4 when they […] within 30 seconds after being laid on either side. At the point where at least one hind leg was scored as 2, food pellets were left on the cage bedding to permit easy access to food. If both hind legs were scored as 2, Nutra-Gel® (Bio-Serve #S4798) was provided as food in addition to food pellets placed on the cage bedding and a long sipper tube was placed on the water bottle.
Date and cause of death were recorded for each mouse. For humane reasons, animals were closely monitored and sacrificed as moribund prior to actual death using criteria for severe moribundity. To determine duration of survival reliably and humanely, the moribund state, defined as the inability of mice to right themselves 30 seconds after being placed on a side (a neurological score of 4) was used. The moribund mice were scored as “dead,” and were euthanized using carbon dioxide asphyxiation.
To determine the impact of reducing T lymphocyte cell proliferation on disease progression in the SOD1 preclinical animal model, a Weibull analysis was performed on the data from the animal study described in Examples 3-5.

[1] = cited from earlier work
[2] = tested on: lymphocytes in peritoneal lavage fluid; test: Lymphocyte cell counts in peritoneal lavage fluid by FACS; assay type: in vivo, mouse; conditions: vs untreated SOD1
Description: FIG. 4 is a graph showing cell counts in peritoneal lavage fluid. SOD1 animals received a loading dose of 2.5 mg/kg fingolimod orally, then oral 1.8 mg/kg once weekly for 3 weeks. Lymphocyte counts were measured via FACS for various cell surface antigens in the peritoneal lavage fluid.
SOD1 mice received a loading dose of 2.5 mg/kg fingolimod orally, then oral 1.8 mg/kg once weekly for 3 weeks. After sacrifice, several measurements were performed. To determine the lymphocyte cell count in peritoneal lavage fluid, peritoneal lavage fluid was removed after sacrifice of the animals and the peritoneal lavage fluid was subjected to fluorescent activated cell sorting for each of the cell surface antigens: CD11b, CD28, CD3, CD4, CD86, […], and LY6G. Lymphocyte cell count from SOD1 fingolimod treated mice was compared to untreated SOD1 mice in FIG. 4.

blood cells = test: Complete blood cell counts in whole blood; assay type: in vivo, mouse; conditions: vs untreated SOD1
Description: FIG. 6 is a graph showing complete blood cell counts in whole blood. SOD1 animals received a loading dose of 2.5 mg/kg fingolimod orally, then oral 1.8 mg/kg once weekly for 3 weeks. Complete blood cell counts included basophils (BAS), eosinophils (EOS), monocytes (MON), lymphocytes (LYM), neutrophils (NEU), and white blood cells (WBC).
Whole blood counts were also measured. Upon sacrifice, blood was removed and complete blood cell counts were performed.

[3] = tested on: experimental autoimmune neuritis; conditions: Zhang et al. 2008, cited from earlier work
[4] = tested on: CD11b positive macrophages; test: Macrophage infiltration into gastrocnemius muscle / peripheral axons (anti-CD11b staining); assay type: in vivo, mouse; conditions: SOD1 animals, load 2.5 mg/kg then 1.8 mg/kg oral weekly from day 50, gastrocnemius at day 100, vs untreated SOD1
Description: SOD1 animals were treated with a loading dose of 2.5 mg/kg fingolimod, followed by weekly oral dosing of 1.8 mg/kg. Dosing was initiated at 50 days of age for the three cohorts: • 1) Non transgenic controls • 2) untreated SOD1 • 3) SOD1 Fingolimod Treated “High Dose” (Load 2.5 mg/kg, 1.8 mg/kg Oral q7d)
Gastrocnemius muscle was harvested from non-transgenic control, untreated SOD1 and fingolimod treated animals at 100 days of age. Tissues were immediately embedded in OCT after harvesting. Frozen sections were H&E stained and hybridized with antibodies to detect macrophages (αCD11b antibody).

[5] = load 2.5 mg/kg oral then 1.8 mg/kg once weekly for 3 weeks

CCCCCCCCc1ccc(CCC(N)(CO)CO)cc1 [fingolimod, 2-amino-2-(4-octylphenethyl)propane-1,3-diol]
disease onset probability (Weibull method) (G93A-SOD1 mice; SOD1 mice): reduced disease onset probability
survival probability (Weibull method) (G93A-SOD1 mice; SOD1 mice): increased survival probability
neurological score over time (G93A-SOD1 mice; male SOD1 mice, high copy number (20-25 copies)): improvement
neurological score over time (G93A-SOD1 mice; male SOD1 mice, low copy number (14-20 copies)): improvement
disease onset probability (Cox Proportional Hazards model) (G93A-SOD1 mice; male SOD1 mice): delayed onset of disease
survival (Cox Proportional Hazards model) (G93A-SOD1 mice; male SOD1 mice): extended survival
CNS penetration and localization ([1]; Foster et al. 2007): CNS penetrant and localizes in the CNS white matter
brain/plasma ratio (in words) ([1]; Meno-Tetang 2006): high
plasma half-life (in words) ([1]; Meno-Tetang 2006): relatively long
lymphocyte count, CD11b [2, 5]: decreased lymphocyte count
lymphocyte count, CD4 ([2]; same regimen): decreased lymphocyte count
lymphocyte count, CD28 ([2]; same regimen): decreased lymphocyte count
lymphocyte count, CD86 ([2]; same regimen): decreased lymphocyte count
lymphocyte count, CTLA34 ([2]; same regimen): decreased lymphocyte count
lymphocyte count, LY6G ([2]; same regimen): decreased lymphocyte count
basophils (BAS) count (blood cells; [5]): decreased numbers
eosinophils (EOS) count (blood cells; same regimen): decreased numbers
lymphocytes (LYM) count (blood cells; same regimen): decreased numbers
monocytes (MON) count (blood cells; same regimen): decreased numbers
neutrophils (NEU) count (blood cells; same regimen): no significant change
white blood cells (WBC) count (blood cells; same regimen): decreased numbers
severity and duration of experimental autoimmune neuritis [3]: reduced the severity and duration
paraparesis ([3]; if administrated with immunization): suppress paraparesis
CD11b positive macrophages infiltrating the skeletal muscle / peripheral axons [4]: significantly fewer
CD11b positive macrophages infiltrating the skeletal muscle / peripheral axons ([4]; listed as Fingolimod): ability to block macrophage infiltration into peripheral axons

From patent publication US8946301B2, “Targeting of T-lymphocytes to treat amyotrophic lateral sclerosis” (ALS Therapy Development Institute, priority 2011, dated 2015)
